Laboratory results taken from BindingDB's records for doi:10.1016/j.bmcl.2019.126715 (Merck, 2020).

Target: Proto-oncogene tyrosine-protein kinase Src (Homo sapiens) (UniProt P12931)
Assay: Inhibition of recombinant full length human SRCN1 expressed in baculovirus expression system using tyrosine-2 peptide as substrate incubated for 60 mins in presence of ATP by Z'-LYTE assay

Chain of Proto-oncogene tyrosine-protein kinase Src (Homo sapiens) (P12931 whole entry, looked up): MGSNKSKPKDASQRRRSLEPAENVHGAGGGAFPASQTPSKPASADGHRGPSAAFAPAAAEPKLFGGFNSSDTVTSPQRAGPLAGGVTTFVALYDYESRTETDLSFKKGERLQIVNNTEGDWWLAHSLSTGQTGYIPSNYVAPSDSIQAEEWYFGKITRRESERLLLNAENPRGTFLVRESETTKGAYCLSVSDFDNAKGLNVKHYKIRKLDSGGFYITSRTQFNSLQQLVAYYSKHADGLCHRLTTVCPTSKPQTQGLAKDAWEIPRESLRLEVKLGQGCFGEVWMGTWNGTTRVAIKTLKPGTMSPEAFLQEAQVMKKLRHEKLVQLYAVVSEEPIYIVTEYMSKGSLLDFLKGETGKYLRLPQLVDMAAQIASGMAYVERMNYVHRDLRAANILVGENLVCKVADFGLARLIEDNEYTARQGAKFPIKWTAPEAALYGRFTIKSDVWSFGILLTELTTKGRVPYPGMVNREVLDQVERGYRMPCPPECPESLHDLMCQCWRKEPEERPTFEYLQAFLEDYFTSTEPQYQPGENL

IC50: > 100 µM
Compound: C[C@@H]1C[C@H]1C(=O)N1CCN(c2cnc(C#N)c(-c3cnn(C)c3)n2)C[C@H]1C
